Source: ChEMBL document CHEMBL5230137, “4-(3H)-quinazolinones N-3 substituted with a five membered heterocycle: A promising scaffold towards bioactive molecules” (Eur J Med Chem, 2021)
Values after ≈ are worked out from the molar mass of the structure shown. Each block holds one compound with its values, some of them ahead of it.

How the values were obtained:
[1] = system: Staphylococcus aureus; assay: Bactericidal activity against Staphylococcus aureus; type: functional
[2] = Acute toxicity in po dosed Swiss albino mouse measured after 24 hrs; type: organism-based; settings: in vivo
[3] = system: Pseudomonas aeruginosa; assay: Bactericidal activity against Pseudomonas aeruginosa; type: functional
[4] = system: Escherichia coli; assay: Bactericidal activity against Escherichia coli; type: functional
[5] = target: COX-1/COX-2 (Homo sapiens) (UniProt P35354+P23219); assay: Selectivity index, ratio of IC50 for human COX-1 to IC50 for human COX-2; type: protein assay
[6] = target: T1, Thermolysin (Bacillus thermoproteolyticus, UniProt P00800); assay: Inhibition of Bacillus thermoproteolyticus Thermolysin
T1 sequence (P00800 whole entry): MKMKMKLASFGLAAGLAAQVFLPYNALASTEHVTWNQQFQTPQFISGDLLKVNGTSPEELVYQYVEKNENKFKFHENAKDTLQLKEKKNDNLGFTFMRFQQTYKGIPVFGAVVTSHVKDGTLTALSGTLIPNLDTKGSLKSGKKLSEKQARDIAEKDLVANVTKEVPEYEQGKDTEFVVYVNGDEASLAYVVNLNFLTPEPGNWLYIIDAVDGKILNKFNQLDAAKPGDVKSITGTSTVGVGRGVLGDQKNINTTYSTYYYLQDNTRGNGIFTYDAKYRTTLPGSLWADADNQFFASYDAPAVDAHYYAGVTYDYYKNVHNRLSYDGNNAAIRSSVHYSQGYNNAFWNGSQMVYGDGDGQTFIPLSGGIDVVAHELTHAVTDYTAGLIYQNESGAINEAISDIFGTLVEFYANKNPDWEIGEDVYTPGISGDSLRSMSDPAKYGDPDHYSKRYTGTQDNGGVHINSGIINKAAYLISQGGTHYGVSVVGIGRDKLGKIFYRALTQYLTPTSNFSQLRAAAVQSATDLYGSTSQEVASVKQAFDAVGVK

[7] = target: T1, Thermolysin; assay: Binding affinity to Bacillus thermoproteolyticus Thermolysin assessed as inhibition constant by Cheng-Prusoff equation analysis
[8] = target: Epidermal growth factor receptor (Homo sapiens, UniProt P00533); assay: Inhibition of wild type human EGFR measured by ELISA analysis
[9] = system: Staphylococcus aureus; assay: Antimicrobial activity against Staphylococcus aureus by CLSI method; type: functional
[10] = system: Bacillus subtilis; assay: Antimicrobial activity against Bacillus subtilis by CLSI method; type: functional
[11] = system: Pseudomonas aeruginosa; assay: Antimicrobial activity against Pseudomonas aeruginosa by CLSI method; type: functional
[12] = system: Escherichia coli; assay: Antibacterial activity against Escherichia coli by CLSI method; type: functional
[13] = target: Phosphatidylinositol 4,5-bisphosphate 3-kinase catalytic subunit alpha isoform (Homo sapiens, UniProt P42336); assay: Inhibition of PI3Kalpha (unknown origin) incubated for 90 mins by [gamma-33P]-ATP based scintillation counting method
[14] = target: T2, Phosphatidylinositol 4,5-bisphosphate 3-kinase catalytic subunit delta isoform (Homo sapiens, UniProt O00329); assay: Inhibition of PI3Kdelta (unknown origin) incubated for 90 mins by [gamma-33P]-ATP based scintillation counting method
T2 sequence (O00329 whole entry): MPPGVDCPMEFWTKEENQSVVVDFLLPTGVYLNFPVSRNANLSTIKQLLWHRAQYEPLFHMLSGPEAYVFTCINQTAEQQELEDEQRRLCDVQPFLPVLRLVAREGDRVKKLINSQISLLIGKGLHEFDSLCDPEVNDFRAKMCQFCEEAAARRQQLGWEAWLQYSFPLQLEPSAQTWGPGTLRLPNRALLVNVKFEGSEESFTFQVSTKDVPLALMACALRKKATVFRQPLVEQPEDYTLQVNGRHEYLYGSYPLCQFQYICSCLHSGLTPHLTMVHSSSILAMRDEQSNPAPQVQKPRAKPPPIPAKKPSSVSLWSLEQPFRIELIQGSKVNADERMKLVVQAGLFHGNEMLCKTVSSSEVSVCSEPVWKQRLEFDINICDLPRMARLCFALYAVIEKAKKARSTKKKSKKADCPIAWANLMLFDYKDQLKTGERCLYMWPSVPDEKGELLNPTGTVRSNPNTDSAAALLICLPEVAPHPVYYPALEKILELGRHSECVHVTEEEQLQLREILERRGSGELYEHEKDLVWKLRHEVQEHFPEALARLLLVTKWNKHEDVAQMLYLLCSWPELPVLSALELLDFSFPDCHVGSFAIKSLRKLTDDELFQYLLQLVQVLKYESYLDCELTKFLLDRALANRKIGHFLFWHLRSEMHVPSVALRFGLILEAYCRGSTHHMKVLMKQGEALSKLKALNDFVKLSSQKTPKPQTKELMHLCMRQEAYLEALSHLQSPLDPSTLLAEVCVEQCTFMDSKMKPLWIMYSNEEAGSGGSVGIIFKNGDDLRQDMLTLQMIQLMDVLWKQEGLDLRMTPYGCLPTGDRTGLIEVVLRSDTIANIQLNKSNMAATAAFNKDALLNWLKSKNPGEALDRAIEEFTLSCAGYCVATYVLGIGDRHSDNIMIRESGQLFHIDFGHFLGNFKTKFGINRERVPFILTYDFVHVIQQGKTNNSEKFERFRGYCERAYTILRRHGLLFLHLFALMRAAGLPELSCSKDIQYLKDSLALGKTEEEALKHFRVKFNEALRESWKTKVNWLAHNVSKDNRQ

[15] = target: Phosphatidylinositol 4,5-bisphosphate 3-kinase catalytic subunit gamma isoform (Homo sapiens, UniProt P48736); assay: Inhibition of PI3Kgamma (unknown origin) incubated for 90 mins by [gamma-33P]-ATP based scintillation counting method
[16] = Inhibition of PI3Kdelta in Rat1 cells reduction in phosphorylation of AKT at Ser473 residue incubated for 2 hrs by alpha screen assay; type: cell-based; settings: Rattus norvegicus, Rat1, 2 h
[17] = system: Ehrlich; assay: Antitumor activity against mouse EAC cells implanted in mouse assessed as decrease in total ascitic volume; type: functional; parameters: scale not given: the % may be the effect or the level left
[18] = system: Ehrlich; assay: Antitumor activity against mouse EAC cells implanted in mouse assessed as reduction in tumor cell count; type: functional; parameters: scale not given: the % may be the effect or the level left
[19] = system: Candida albicans; assay: Fungicidal activity against Candida albicans; type: functional
[20] = system: Aspergillus niger; assay: Fungicidal activity against Aspergillus niger; type: functional
[21] = system: Aspergillus clavatus; assay: Fungicidal activity against Aspergillus clavatus; type: functional
[22] = system: K562; assay: Anticancer activity against human K562 cells assessed as reduction in cell viability; type: functional, cell-based

Sequence of Phosphatidylinositol 4,5-bisphosphate 3-kinase catalytic subunit alpha isoform (P42336 whole entry, canonical isoform): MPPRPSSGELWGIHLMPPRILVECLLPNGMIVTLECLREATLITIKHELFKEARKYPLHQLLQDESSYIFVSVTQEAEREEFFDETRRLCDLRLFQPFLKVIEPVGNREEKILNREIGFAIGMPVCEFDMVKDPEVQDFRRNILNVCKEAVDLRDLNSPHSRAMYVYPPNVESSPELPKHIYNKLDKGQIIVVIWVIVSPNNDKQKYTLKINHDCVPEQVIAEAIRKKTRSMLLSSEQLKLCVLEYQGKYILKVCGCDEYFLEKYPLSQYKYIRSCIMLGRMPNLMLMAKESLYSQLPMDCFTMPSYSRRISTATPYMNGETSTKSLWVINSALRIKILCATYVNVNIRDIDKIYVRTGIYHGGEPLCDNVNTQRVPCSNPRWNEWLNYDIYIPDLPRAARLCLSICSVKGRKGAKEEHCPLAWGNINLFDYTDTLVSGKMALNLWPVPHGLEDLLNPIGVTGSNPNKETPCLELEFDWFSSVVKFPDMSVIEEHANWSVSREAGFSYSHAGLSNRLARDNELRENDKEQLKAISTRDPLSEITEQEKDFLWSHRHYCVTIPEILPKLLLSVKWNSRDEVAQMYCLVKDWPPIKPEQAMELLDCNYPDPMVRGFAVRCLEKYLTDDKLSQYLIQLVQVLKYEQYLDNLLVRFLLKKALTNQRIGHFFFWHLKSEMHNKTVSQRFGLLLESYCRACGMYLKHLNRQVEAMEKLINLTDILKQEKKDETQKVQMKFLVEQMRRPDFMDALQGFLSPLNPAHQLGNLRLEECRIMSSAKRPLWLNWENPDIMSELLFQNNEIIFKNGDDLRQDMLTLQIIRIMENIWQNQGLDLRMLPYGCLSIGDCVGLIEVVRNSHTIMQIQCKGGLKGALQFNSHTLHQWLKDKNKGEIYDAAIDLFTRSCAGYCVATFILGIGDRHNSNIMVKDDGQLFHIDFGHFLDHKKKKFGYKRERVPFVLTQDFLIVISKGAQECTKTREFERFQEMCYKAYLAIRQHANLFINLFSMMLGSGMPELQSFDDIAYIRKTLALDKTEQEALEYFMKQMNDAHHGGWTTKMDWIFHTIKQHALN
Sequence of Phosphatidylinositol 4,5-bisphosphate 3-kinase catalytic subunit gamma isoform (P48736 whole entry, canonical isoform): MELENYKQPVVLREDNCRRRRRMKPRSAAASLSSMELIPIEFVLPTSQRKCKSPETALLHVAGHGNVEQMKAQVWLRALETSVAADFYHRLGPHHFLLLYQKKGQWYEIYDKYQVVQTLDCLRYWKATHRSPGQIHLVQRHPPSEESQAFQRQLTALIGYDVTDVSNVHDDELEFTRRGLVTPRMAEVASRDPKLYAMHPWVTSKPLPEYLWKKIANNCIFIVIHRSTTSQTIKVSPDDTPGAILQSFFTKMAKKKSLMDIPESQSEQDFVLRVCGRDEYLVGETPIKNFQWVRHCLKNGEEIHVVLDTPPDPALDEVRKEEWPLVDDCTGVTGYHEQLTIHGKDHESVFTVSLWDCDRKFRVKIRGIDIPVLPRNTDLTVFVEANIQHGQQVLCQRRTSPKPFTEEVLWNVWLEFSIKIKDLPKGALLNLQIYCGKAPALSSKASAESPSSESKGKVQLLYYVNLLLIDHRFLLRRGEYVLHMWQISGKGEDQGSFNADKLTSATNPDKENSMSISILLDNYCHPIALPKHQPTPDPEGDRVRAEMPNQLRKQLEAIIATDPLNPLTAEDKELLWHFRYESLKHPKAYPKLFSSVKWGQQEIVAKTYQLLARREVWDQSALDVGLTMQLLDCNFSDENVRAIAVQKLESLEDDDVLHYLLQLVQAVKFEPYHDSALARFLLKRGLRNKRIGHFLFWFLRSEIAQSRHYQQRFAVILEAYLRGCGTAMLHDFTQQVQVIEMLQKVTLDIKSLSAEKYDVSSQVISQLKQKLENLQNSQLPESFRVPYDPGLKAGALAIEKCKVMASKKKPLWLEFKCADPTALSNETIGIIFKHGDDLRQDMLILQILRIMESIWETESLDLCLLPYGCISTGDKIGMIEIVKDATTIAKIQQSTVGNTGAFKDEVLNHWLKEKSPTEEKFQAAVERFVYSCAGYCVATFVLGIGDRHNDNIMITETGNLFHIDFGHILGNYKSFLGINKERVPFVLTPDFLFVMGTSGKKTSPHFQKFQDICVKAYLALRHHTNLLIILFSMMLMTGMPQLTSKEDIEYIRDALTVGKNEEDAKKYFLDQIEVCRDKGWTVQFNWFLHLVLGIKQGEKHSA
Sequence of Epidermal growth factor receptor (P00533 whole entry): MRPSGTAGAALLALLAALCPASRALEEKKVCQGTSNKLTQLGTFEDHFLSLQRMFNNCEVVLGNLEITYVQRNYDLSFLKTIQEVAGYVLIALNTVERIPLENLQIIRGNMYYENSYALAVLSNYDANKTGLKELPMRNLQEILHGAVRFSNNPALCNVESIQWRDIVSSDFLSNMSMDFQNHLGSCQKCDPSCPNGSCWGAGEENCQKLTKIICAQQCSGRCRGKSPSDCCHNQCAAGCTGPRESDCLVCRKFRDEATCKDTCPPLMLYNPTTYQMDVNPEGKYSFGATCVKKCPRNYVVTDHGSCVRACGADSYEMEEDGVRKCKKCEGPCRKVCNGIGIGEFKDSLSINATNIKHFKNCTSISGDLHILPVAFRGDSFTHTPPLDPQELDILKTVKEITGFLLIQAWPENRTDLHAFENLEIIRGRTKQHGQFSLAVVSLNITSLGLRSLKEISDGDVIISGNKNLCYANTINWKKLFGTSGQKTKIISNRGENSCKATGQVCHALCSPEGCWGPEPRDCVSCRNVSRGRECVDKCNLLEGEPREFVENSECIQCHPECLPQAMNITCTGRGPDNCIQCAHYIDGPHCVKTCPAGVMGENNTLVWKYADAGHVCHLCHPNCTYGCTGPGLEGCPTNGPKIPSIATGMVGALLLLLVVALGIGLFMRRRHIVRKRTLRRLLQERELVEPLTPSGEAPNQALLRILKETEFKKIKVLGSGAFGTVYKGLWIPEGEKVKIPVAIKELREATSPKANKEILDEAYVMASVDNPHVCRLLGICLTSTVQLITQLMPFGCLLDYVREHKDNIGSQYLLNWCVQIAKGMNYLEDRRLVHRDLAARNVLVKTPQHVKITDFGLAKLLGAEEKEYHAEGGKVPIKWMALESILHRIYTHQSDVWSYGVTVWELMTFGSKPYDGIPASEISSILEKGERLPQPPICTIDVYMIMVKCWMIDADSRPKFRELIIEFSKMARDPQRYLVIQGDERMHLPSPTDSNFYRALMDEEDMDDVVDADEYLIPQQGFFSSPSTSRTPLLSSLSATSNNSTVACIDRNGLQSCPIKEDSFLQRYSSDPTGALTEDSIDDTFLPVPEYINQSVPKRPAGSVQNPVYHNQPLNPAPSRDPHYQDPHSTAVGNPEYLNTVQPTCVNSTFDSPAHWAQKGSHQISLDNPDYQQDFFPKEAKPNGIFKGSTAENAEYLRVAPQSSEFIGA

SMILES: O=c1c2cc(Br)ccc2nc(Cc2ccccc2Nc2c(Cl)cccc2Cl)n1-c1nnc(-c2ccccc2Cl)o1
MBC [1]: 50 µg/mL (≈ 76.5 µM)

SMILES: CC1=Cc2ccc(Br)cc2C(=O)C1c1nnc(SCC(=O)N/N=C/c2c(Br)cccc2Br)[nH]1 (centres undefined)
LD [2]: 1400 mg/kg

SMILES: O=c1c2cc(I)ccc2nc(Cc2ccccc2Nc2c(Cl)cccc2Cl)n1-c1ccc(-c2nnc(-c3ccccc3Cl)o2)cc1
MBC [1]: 50 µg/mL (≈ 64.4 µM)

SMILES: O=c1c2cc(I)ccc2nc(Cc2ccccc2Nc2c(Cl)cccc2Cl)n1Cc1nnc(-c2ccc(Cl)cc2)o1
MBC [3]: 150 µg/mL (≈ 210 µM)
MBC [4]: 50 µg/mL (≈ 70 µM)

Ratio IC50 [5]: 2.55
SMILES: O=c1c2cc(Cl)ccc2nc(-c2ccccc2)n1-c1n[nH]c2ccccc12

SMILES: O=c1c2ccccc2nc(-c2ccccc2)n1-c1nccs1
IC50 [6]: 76.8 µM
Ki [7]: 59.3 µM

SMILES: O=c1c2ccccc2nc(Cc2ccccc2Nc2c(Cl)cccc2Cl)n1-c1ccc(-c2nnc(-c3ccccc3Cl)o2)cc1
MBC [1]: 50 µg/mL (≈ 76.8 µM)

IC50 [8]: 0.102 µM
SMILES: O=c1c2ccc(Cl)cc2nc(-c2ccccc2)n1-c1nnc(-c2ccccc2C2CC2)o1

Ratio IC50 [5]: 1.05
SMILES: O=c1c2cc(Br)ccc2nc(-c2ccccc2)n1-c1n[nH]c2ccccc12

MIC [9]: 79 µg/mL (≈ 185 µM)
MIC [10]: 75 µg/mL (≈ 176 µM)
MIC [11]: 70 µg/mL (≈ 164 µM)
MIC [12]: 70 µg/mL (≈ 164 µM)
SMILES: O=c1c2ccccc2nc(/C=C/c2ccccc2)n1-c1nnc(-c2ccc(Cl)cc2)o1

SMILES: CC1=Cc2ccc(Br)cc2C(=O)C1c1nnc(SCC(=O)NC2C(=O)CSC2c2c(Br)cccc2Br)[nH]1 (centres undefined)
LD [2]: 1400 mg/kg

IC50 [13]: > 10 µM
IC50 [14]: 0.082 µM
IC50 [15]: > 10 µM
IC50 [16]: 2.26 µM
SMILES: CN1CCN(C)/C(=N/c2ccc([N+](=O)[O-])cc2C(=O)Nc2ccccc2)C1

SMILES: Cc1nc2ccccc2c(=O)n1-c1nnc(S)s1
Activity [17]: 28%
Activity [18]: 12%

SMILES: O=c1c2cc(I)ccc2nc(Cc2ccccc2Nc2c(Cl)cccc2Cl)n1Cc1nnc(-c2ccccc2Cl)o1
MFC [19]: 100 µg/mL (≈ 140 µM)
MFC [20]: 200 µg/mL (≈ 280 µM)
MFC [21]: 200 µg/mL (≈ 280 µM)

IC50 [13]: 9.1 µM
IC50 [16]: 0.222 µM
SMILES: Cn1nccc1-n1c([C@@H]2CSCN2c2ncnc3[nH]cnc23)nc2cccc(Cl)c2c1=O

IC50 [22]: 1.5 µM
SMILES: O=c1c2cc(Br)ccc2nc(Cc2ccccc2Nc2c(Cl)cccc2Cl)n1Cc1nnc(-c2ccc(Cl)cc2)o1
MBC [1]: 50 µg/mL (≈ 74.9 µM)

SMILES: CC1(C)S[C@@H]2[C@H](NC(=O)[C@H](N)c3ccccc3)C(=O)N2[C@H]1C(=O)O [AMPICILLIN]
MBC [1]: 250 µg/mL (≈ 715 µM)

IC50 [8]: 0.021 µM
SMILES: COc1ccc(-c2nnc(-n3c(-c4ccccc4)nc4cc(Cl)ccc4c3=O)o2)cc1

IC50 [22]: 1 µM
SMILES: O=c1c2ccccc2nc(Cc2ccccc2Nc2c(Cl)cccc2Cl)n1Cc1nnc(-c2ccc(Cl)cc2)o1

Ratio IC50 [5]: 3.59
SMILES: Cc1ccc2nc(-c3ccccc3)n(-c3n[nH]c4ccccc34)c(=O)c2c1

SMILES: O=c1c2cc(I)ccc2nc(Cc2ccccc2Nc2c(Cl)cccc2Cl)n1-c1ccc(-c2nnc(-c3ccc(Cl)cc3)o2)cc1
MBC [1]: 50 µg/mL (≈ 64.4 µM)

IC50 [13]: > 10 µM
IC50 [14]: 0.14 µM
IC50 [15]: 1.1 µM
IC50 [16]: 0.509 µM
SMILES: N#Cc1c(N)ncnc1N1CSC[C@H]1c1nc2cccc(Cl)c2c(=O)n1-c1cccs1

IC50 [16]: > 10 µM
SMILES: Cn1nccc1-n1c([C@@H]2CSCN2c2ncnc(N)c2C#N)nc2cccc(Cl)c2c1=O
